Here are results for ten compounds from ChEMBL document CHEMBL2331143, “Antiparkinsonian activity of some 9-N-, O-, S- and C-derivatives of 3-methyl-6-(prop-1-en-2-yl)cyclohex-3-ene-1,2-diol” (2013).

What all share (assay type): functional
Assay [1] relates to Mus musculus. Nature of the assay: Antiparkinsonian activity in MPTP C57Bl/6 mouse model assessed as immobility time at 20 mg/kg, po administered 24 hrs loast last dose of MPTP measured after 2 hrs post compound dose by open field test relative to saline-treated control.
Assay [2] concerns Mus musculus. Nature of the assay: Antiparkinsonian activity in MPTP C57Bl/6 mouse model assessed as time of locomotor activity at 20 mg/kg, po administered 24 hrs loast last dose of MPTP measured after 2 hrs post compound dose by open field test relative to saline-treated control.
The test system of assay [3] is Mus musculus. Nature of the assay: Antiparkinsonian activity in MPTP C57Bl/6 mouse model assessed as movement speed at 20 mg/kg, po administered 24 hrs loast last dose of MPTP measured after 2 hrs post compound dose by open field test relative to saline-treated control.
Assay [4] deals with Mus musculus. Nature of the assay: Antiparkinsonian activity in MPTP C57Bl/6 mouse model assessed as movement distance at 20 mg/kg, po administered 24 hrs loast last dose of MPTP measured after 2 hrs post compound dose by open field test relative to saline-treated control.

Structures are written as SMILES.

Turning to `C=C(C)[C@@H]1CC=C(C)[C@@H](O)[C@@H]1O`, the values for the Time in assay [1] and in assay [2] were 50.8 s and 69.2 s, respectively. Moreover, the Activity in assay [3] amounted to 2.6 cm/s; in assay [4] it was 302 cm.
For `C=C(CSCCC)[C@@H]1CC=C(C)[C@@H](O)[C@@H]1O` the same measures were 58.6 s, 61.4 s, 2.6 cm/s and 317.6 cm.
For `C=C1CO[C@H]2[C@H](O)C(C)=CC[C@@H]12` the same measures were 73.4 s, 46.6 s, 1.7 cm/s and 214 cm.
For `C=C(CCCCC)[C@@H]1CC=C(C)[C@@H](O)[C@@H]1O` the same measures were 56.8 s, 63.2 s, 2.7 cm/s and 335.2 cm.
For the compound `C=C(CNC1C2CC3CC(C2)CC1C3)[C@@H]1CC=C(C)[C@@H](O)[C@@H]1O` (stereo not given in full), the figures for the Time in assay [1] and in assay [2] were 85.2 s and 34.8 s, respectively. Also, the Activity in assay [3] is reported as 1.2 cm/s; in assay [4], 149.7 cm.
`C=C(CNCCN(C)C)[C@@H]1CC=C(C)[C@@H](O)[C@@H]1O`: the Time in assay [1] turned out to be 68.8 s; in assay [2] it was 51.2 s. For the same compound, the values for the Activity in assay [3] and in assay [4] were 1.8 cm/s and 225 cm, respectively.
With `C=C(CN1C(=O)c2ccccc2C1=O)[C@@H]1CC=C(C)[C@@H](O)[C@@H]1O`, the Time is given as 61.7 s in assay [1] and 58.3 s in assay [2]. Further, the figures for the Activity in assay [3] and in assay [4] were 2.3 cm/s and 280 cm, respectively.
In the same order, the values of `C=C(CN1CCOCC1)[C@@H]1CC=C(C)[C@@H](O)[C@@H]1O` are 71.5 s, 48.5 s, 1.7 cm/s and 215.3 cm.
In the same order, the values of `C=C(CO)[C@@H]1CC=C(C)[C@@H](O)[C@@H]1O` are 80 s, 37.2 s, 1.5 cm/s and 182.1 cm.
For `C=C(CN)[C@@H]1CC=C(C)[C@@H](O)[C@@H]1O`, the Time in assay [1] was found to be 66.5 s; in assay [2], 53.5 s. The Activity was found to be 2 cm/s in assay [3] and 248.6 cm in assay [4].
